The supplement of paper PMC5908809

Experiments:
[1] = test system: normal NK cells expanded with K562-aAPC; experiment: percent inhibition of viability; higher = more inhibition; settings: 72 h, IL-2 2.5 ng/mL
Procedure: (§1)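 Drug sensitivity and resistance testing on K562-aAPC-expanded normal NK cells: 5 concentrations (10-fold steps over a 10,000-fold range), 72 h at 37 °C, viability by CellTiter-Glo normalised to DMSO and benzethonium chloride controls; DSS from the fitted curve.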

[2] = test system: DERL-7 (IL-2 2.5 ng/mL); experiment: as above; settings: 72 h
[3] = test system: IMC-1 (IL-2 20 ng/mL); experiment: as above; settings: 72 h
[4] = test system: KAI3 (IL-2 2.5 ng/mL); experiment: as above; settings: 72 h
[5] = test system: KHYG-1 (IL-2 2.5 ng/mL); experiment: as above; settings: 72 h
[6] = test system: NK-92 (IL-2 2.5 ng/mL); experiment: as above; settings: 72 h
[7] = test system: NK-YS (IL-2 2.5 ng/mL); experiment: as above; settings: 72 h
[8] = test system: NKL (IL-2 2.5 ng/mL); experiment: as above; settings: 72 h
[9] = test system: SNK-6 (IL-2 2.5 ng/mL); experiment: as above; settings: 72 h
[10] = test system: YT (IL-2 2.5 ng/mL); experiment: as above; settings: 72 h
[11] = test system: normal primary NK cells, pool 1 (3 donors) (IL-2 2.5 ng/mL); experiment: as above; settings: 72 h
[12] = test system: normal primary NK cells, pool 1 (3 donors), resting (IL-2 0 ng/mL); experiment: as above; settings: 72 h
[13] = test system: normal primary NK cells, pool 2 (3 donors) (IL-2 2.5 ng/mL); experiment: as above; settings: 72 h
[14] = test system: normal primary NK cells, pool 3 (3 donors) (IL-2 2.5 ng/mL); experiment: as above; settings: 72 h
[15] = test system: normal NK cells expanded with K562-aAPC; experiment: drug sensitivity score (DSS) (DSS units); higher = more sensitive; extreme values may be limits of the assay; settings: 72 h; IL-2 2.5 ng/mL
Procedure: as §1

[16] = test system: DERL-7 (IL-2 2.5 ng/mL); experiment: as above; settings: 72 h
[17] = test system: IMC-1 (IL-2 20 ng/mL); experiment: as above; settings: 72 h
[18] = test system: KAI3 (IL-2 2.5 ng/mL); experiment: as above; settings: 72 h
[19] = test system: KHYG-1 (IL-2 2.5 ng/mL); experiment: as above; settings: 72 h
[20] = test system: NK-92 (IL-2 2.5 ng/mL); experiment: as above; settings: 72 h
[21] = test system: NK-YS (IL-2 2.5 ng/mL); experiment: as above; settings: 72 h
[22] = test system: NKL (IL-2 2.5 ng/mL); experiment: as above; settings: 72 h
[23] = test system: SNK-6 (IL-2 2.5 ng/mL); experiment: as above; settings: 72 h
[24] = test system: YT (IL-2 2.5 ng/mL); experiment: as above; settings: 72 h
[25] = test system: normal primary NK cells, pool 1 (3 donors) (IL-2 2.5 ng/mL); experiment: as above; settings: 72 h
[26] = test system: normal primary NK cells, pool 1 (3 donors), resting (IL-2 0 ng/mL); experiment: as above; settings: 72 h
[27] = test system: normal primary NK cells, pool 2 (3 donors) (IL-2 2.5 ng/mL); experiment: as above; settings: 72 h
[28] = test system: normal primary NK cells, pool 3 (3 donors) (IL-2 2.5 ng/mL); experiment: as above; settings: 72 h

C=CCN(/C=C1/C(=O)O[C@H](COC)[C@@]2(C)C1=C(O)C(=O)C1=C2[C@H](OC(C)=O)C[C@]2(C)C(=O)CC[C@@H]12)CC=C [Sonolisib] (max concentration tested 10000 nM)
percent inhibition of viability [%]
Settings	1 nM	10 nM	100 nM	1000 nM	10000 nM
[1]	-4.81	-6.86	-3.23	3.22	31.4
[2]	4.44	0.05	7.66	7.97	25.7
[3]	-9.13	-2.03	-1.28	-0.72	6.3
[4]	-2.28	-8.79	-2.59	6.95	37.8
[5]	-3.26	-9.75	-5.87	-0.67	19.3
[6]	-0.51	-6.14	4.9	21.8	43.3
[7]	-0.83	-2.4	-0.43	13.8	28.2
[8]	-7.87	-4.63	-1.36	21.9	28.6
[9]	-13.7	-20.8	-21.5	-12.3	28.8
[10]	-3.75	-4.21	-0.91	9.17	19.1
[11]	-5.92	11.5	7.17	23.3	57
[12]	-7.82	8.6	11.1	16.4	59.7
[13]	-5.83	0.64	8.59	17.3	40.2
[14]	-11.6	9.95	14.7	4.05	31.2

Settings	drug sensitivity score
[15]	1.91
[16]	1.49
[17]	0
[18]	2.98
[19]	0.5
[20]	4.58
[21]	2.85
[22]	3.66
[23]	0.79
[24]	1.45
[25]	5.59
[26]	5.24
[27]	3.83
[28]	2.06

CN1CCN(c2nc(C3=C(c4c[nH]c5ccccc45)C(=O)NC3=O)c3ccccc3n2)CC1 [Sotrastaurin] (max concentration tested 10000 nM)
percent inhibition of viability [%]
Settings	1 nM	10 nM	100 nM	1000 nM	10000 nM
[1]	-1.03	-1.43	5.74	19.1	54.6
[2]	-4.78	-0.35	2.08	40.8	89
[3]	-5.62	-0.79	-3.9	0.37	14.4
[4]	1.68	5.93	0.83	15.7	68.5
[5]	-1.7	2.28	1.66	16.2	86.7
[6]	-7.26	-8.85	-22.3	14.4	67.9
[7]	-6.15	-1.7	5.97	11.9	48.6
[8]	-0.06	2.68	21.7	45.5	80
[9]	-17.8	-16.5	-5.18	-2.38	44.5
[10]	-2.44	0.13	0.38	16.3	34.6
[11]	-5.39	7.06	18.6	27.9	44.3
[12]	-32.7	2.96	-3.23	9.18	-53.6
[13]	-13.5	-3.77	5.41	15.2	41.4
[14]	-3.26	-0.15	8.22	5.07	38.6

Settings	drug sensitivity score
[15]	5.13
[16]	9.93
[17]	0.22
[18]	6.26
[19]	7.45
[20]	6.04
[21]	4.32
[22]	11.4
[23]	2.08
[24]	3.65
[25]	7.19
[26]	0
[27]	3.66
[28]	2.75
